Reference: PMC5053523, “In Vitro Antibacterial Activity of Rhodanine Derivatives against Pathogenic Clinical Isolates” (PLoS ONE, 2016)
Converted amounts (≈) assume the structure as drawn. Read-outs that look alike come from different tables or passages of the source.

How the values were obtained:
Salmonella Typhimurium = test: MIC with/without PMBN, Salmonella Typhimurium; type: cell-based
How it was run: (§1)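 Gram-negative MICs were determined for rhodanines alongside control antibiotics, each combined with sub-inhibitory colistin or PMBN. Further testing used the efflux-deficient E. coli SM1411ΔacrAB, missing the AcrAB multidrug pump.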

Escherichia coli O157:H7 = test: MIC with/without PMBN, Escherichia coli O157:H7; type: cell-based
How it was run: as §1

Bacillus Strains = test: Broth microdilution MIC50/MIC90 and MIC range, Bacillus strains panel; type: cell-based, Bacillus spp.; settings: 10 Bacillus strains
Source text: The broth microdilution technique was used, followed by subculturing on agar plates that were rhodanine—free. […] The MICs reported represent the lowest concentration of each compound necessary to inhibit bacterial growth and the MBCs represent the lowest concentration required to reduce the initial bacterial inoculum by ≥ 99.9%.

P. aeruginosa = test: Broth microdilution MIC, P. aeruginosa; type: cell-based; settings: Pseudomonas aeruginosa
Clostridium difficile = test: MIC against Clostridium difficile, anaerobic broth dilution; type: cell-based; settings: Clostridioides difficile
How it was run: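 Clinical C. difficile isolates grown anaerobically 48 h at 37 °C, suspended to 0.5 McFarland and diluted 1:300 in pre-reduced supplemented Brain Heart Infusion broth. Compounds serially diluted; plates incubated anaerobically at 37 °C for 48 h. MIC = lowest concentration with no visible growth.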

B. cereus = test: Broth microdilution MIC/MBC, B. cereus; type: cell-based; settings: Bacillus cereus; for MBC: read-out: MBC; for MIC: read-out: MIC
Source text: The broth microdilution technique was used, followed by subculturing on agar plates that were rhodanine—free.

[1] = system: vancomycin resistant enterococci (VRE) E. faecium; test: Broth microdilution MIC/MBC, VRE E. faecium; type: cell-based; settings: for MIC: read-out: MIC
[2] = system: vancomycin resistant enterococci (VRE) E. faecalis; test: Broth microdilution MIC/MBC, VRE E. faecalis; type: cell-based; settings: for MIC: read-out: MIC
Mycobacterium smegmatis = test: Broth microdilution MIC/MBC, Mycobacterium smegmatis; type: cell-based; settings: Mycolicibacterium smegmatis, ATCC14468, M. Smegmatis ATCC 14468
Escherichia coli Δ acrAB = test: MIC against E. coli 1411 and AcrAB efflux pump deficient E. coli SM1411Δ acrAB; type: cell-based
How it was run: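 Rhodanines and control antibiotics are tested for MIC against Gram-negative bacteria while a sub-inhibitory level of colistin or PMBN is present. A strain of E. coli lacking the AcrAB efflux pump (SM1411ΔacrAB) serves as an additional test organism.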

[3] = system: Vancomycin Resistant Staphylococcus aureus (VRSA); test: Broth microdilution MIC/MBC, VRSA; type: cell-based; settings: for MBC / MIC: VRSA
[4] = NRS201, B. cereus NRS 201 NR-2488
[5] = E. faecium HM 968 Strain ERV102
[6] = E. faecium NR31914 Strain E0120
[7] = E. faecium Patient #1–1 NR-31903
[8] = E. faecalis NR31972 Strain SF 28073

Structure (SMILES): O=C(O)[C@@H](Cc1ccccc1)N1C(=O)/C(=C/c2cccc(Cc3ccccc3)c2)SC1=S [Rh 7]
- MIC (Salmonella Typhimurium; Salmonella Typhimurium ATCC 700720, PMBN (+) 4 μg/mL, read-out: MIC): >128 µM
- MIC (Salmonella Typhimurium; Salmonella enterica, ATCC 700720 / TYPHIMURIUM): > 128 µM
- MIC (Escherichia coli O157:H7; Escherichia coli O157:H7 ATCC 35150, PMBN (+) 4 μg/mL, read-out: MIC): 8 µM (≈ 3.68 µg/mL)
- MIC (Escherichia coli O157:H7; Escherichia coli O157:H7 ATCC 700728, PMBN (+) 4 μg/mL, read-out: MIC): >64 µM
- MIC (Escherichia coli O157:H7; Escherichia coli, ATCC35150): > 256 µM
- MIC (Escherichia coli O157:H7; Escherichia coli, ATCC700728): > 128 µM
- MIC50 (Bacillus Strains): 4 µM (≈ 1.84 µg/mL)
- MIC90 (Bacillus Strains): 8 µM (≈ 3.68 µg/mL)
- MIC (P. aeruginosa; ATCC9721): > 128 µM
- MIC (P. aeruginosa; ATCC15442): > 128 µM
- MIC (Clostridium difficile; C. difficile HM-88): 4 µM (≈ 1.84 µg/mL)
- MIC (Clostridium difficile; C. difficile HM-745): 1 µM (≈ 0.46 µg/mL)
- MIC (Clostridium difficile; C. difficile HM-746): 2 µM (≈ 0.919 µg/mL)
- MIC (Clostridium difficile; C. difficile Isolate-1 NR-13427): 4 µM (≈ 1.84 µg/mL)
- MIC (Clostridium difficile; C. difficile Toxigenic Strain P8 NR-32888): 4 µM (≈ 1.84 µg/mL)
- MBC (B. cereus; B. cereus BAG1O-2 NR-28582): 4 µM (≈ 1.84 µg/mL)
- MIC (B. cereus; B. cereus BAG1O-2 NR-28582): 4 µM (≈ 1.84 µg/mL)
- MBC (B. cereus; B. cereus BAG1X1-1 NR-28575): 4 µM (≈ 1.84 µg/mL)
- MIC (B. cereus; B. cereus BAG1X1-1 NR-28575): 2 µM (≈ 0.919 µg/mL)
- MBC (B. cereus; B. cereus BAG1X2-1 NR-28578): 4 µM (≈ 1.84 µg/mL)
- MIC (B. cereus; B. cereus BAG1X2-1 NR-28578): 4 µM (≈ 1.84 µg/mL)
- MBC (B. cereus; B. cereus G9241 NR-9564): 8 µM (≈ 3.68 µg/mL)
- MIC (B. cereus; B. cereus G9241 NR-9564): 8 µM (≈ 3.68 µg/mL)
- MBC (B. cereus; B. cereus VD014 NR-22141): 4 µM (≈ 1.84 µg/mL)
- MIC (B. cereus; B. cereus VD014 NR-22141): 4 µM (≈ 1.84 µg/mL)
- MBC (B. cereus; B. cereus VD115 NR-22148): 4 µM (≈ 1.84 µg/mL)
- MIC (B. cereus; B. cereus VD115 NR-22148): 4 µM (≈ 1.84 µg/mL)
- MBC (B. cereus; B. cereus VD148 NR-22150): 4 µM (≈ 1.84 µg/mL)
- MIC (B. cereus; B. cereus VD148 NR-22150): 4 µM (≈ 1.84 µg/mL)
- MBC (B. cereus; [4]): 4 µM (≈ 1.84 µg/mL)
- MIC (B. cereus; [4]): 4 µM (≈ 1.84 µg/mL)
- MBC ([1]; E. faecium E417 HM-965): 64 µM (≈ 29.4 µg/mL)
- MIC ([1]; E. faecium E417 HM-965): 8 µM (≈ 3.68 µg/mL)
- MBC ([1]; E. faecium E1071 NR-28978): > 64 µM
- MIC ([1]; E. faecium E1071 NR-28978): 16 µM (≈ 7.35 µg/mL)
- MBC [1, 5]: > 64 µM
- MIC [1, 5]: 16 µM (≈ 7.35 µg/mL)
- MBC [1, 6]: 32 µM (≈ 14.7 µg/mL)
- MIC [1, 6]: 16 µM (≈ 7.35 µg/mL)
- MBC [1, 7]: 16 µM (≈ 7.35 µg/mL)
- MIC [1, 7]: 8 µM (≈ 3.68 µg/mL)
- MBC ([2]; E. faecalis ERV103 HM-934): 16 µM (≈ 7.35 µg/mL)
- MIC ([2]; E. faecalis ERV103 HM-934): 16 µM (≈ 7.35 µg/mL)
- MBC [2, 8]: 16 µM (≈ 7.35 µg/mL)
- MIC [2, 8]: 16 µM (≈ 7.35 µg/mL)
- MBC ([2]; E. faecalis R712 HM-335): 16 µM (≈ 7.35 µg/mL)
- MIC ([2]; E. faecalis R712 HM-335): 8 µM (≈ 3.68 µg/mL)
- MBC ([2]; E. faecalis S613 HM-334): 16 µM (≈ 7.35 µg/mL)
- MIC ([2]; E. faecalis S613 HM-334): 16 µM (≈ 7.35 µg/mL)
- MBC ([2]; E. faecalis TX0104 HM-201): 16 µM (≈ 7.35 µg/mL)
- MIC ([2]; E. faecalis TX0104 HM-201): 16 µM (≈ 7.35 µg/mL)
- MBC (Mycobacterium smegmatis; read-out: MBC): 16 µM (≈ 7.35 µg/mL)
- MIC (Mycobacterium smegmatis; read-out: MIC): 16 µM (≈ 7.35 µg/mL)
- MIC (Escherichia coli Δ acrAB; E.coli 1411): > 64 µM
- MIC (Escherichia coli Δ acrAB; E.coli 1411 SM (Δ acrAB, AcrAB efflux pump deficient)): > 64 µM
- MIC50 ([3]; 15 VRSA strains, read-out: MIC 50): 8 µM (≈ 3.68 µg/mL)
- MIC90 ([3]; 15 VRSA strains, read-out: MIC 90): 16 µM (≈ 7.35 µg/mL)
- MBC ([3]; VRSA 1, read-out: MBC): 32 µM (≈ 14.7 µg/mL)
- MIC ([3]; VRSA 1, read-out: MIC): 16 µM (≈ 7.35 µg/mL)
- MBC ([3]; VRSA 2, read-out: MBC): 8 µM (≈ 3.68 µg/mL)
- MIC ([3]; VRSA 2, read-out: MIC): 8 µM (≈ 3.68 µg/mL)
- MBC ([3]; VRSA 3a, read-out: MBC): 8 µM (≈ 3.68 µg/mL)
- MIC ([3]; VRSA 3a, read-out: MIC): 8 µM (≈ 3.68 µg/mL)
- MBC ([3]; VRSA 3b, read-out: MBC): 32 µM (≈ 14.7 µg/mL)
- MIC ([3]; VRSA 3b, read-out: MIC): 8 µM (≈ 3.68 µg/mL)
- MBC ([3]; VRSA 4, read-out: MBC): 16 µM (≈ 7.35 µg/mL)
- MIC ([3]; VRSA 4, read-out: MIC): 8 µM (≈ 3.68 µg/mL)
- MBC ([3]; VRSA 5, read-out: MBC): 8 µM (≈ 3.68 µg/mL)
- MIC ([3]; VRSA 5, read-out: MIC): 8 µM (≈ 3.68 µg/mL)
- MBC ([3]; VRSA 6, read-out: MBC): 16 µM (≈ 7.35 µg/mL)
- MIC ([3]; VRSA 6, read-out: MIC): 8 µM (≈ 3.68 µg/mL)
- MBC ([3]; VRSA 7, read-out: MBC): 16 µM (≈ 7.35 µg/mL)
- MIC ([3]; VRSA 7, read-out: MIC): 8 µM (≈ 3.68 µg/mL)
- MBC ([3]; VRSA 8, read-out: MBC): 16 µM (≈ 7.35 µg/mL)
- MIC ([3]; VRSA 8, read-out: MIC): 8 µM (≈ 3.68 µg/mL)
- MBC ([3]; VRSA 9, read-out: MBC): 16 µM (≈ 7.35 µg/mL)
- MIC ([3]; VRSA 9, read-out: MIC): 16 µM (≈ 7.35 µg/mL)
- MBC ([3]; VRSA 10, read-out: MBC): 16 µM (≈ 7.35 µg/mL)
- MIC ([3]; VRSA 10, read-out: MIC): 8 µM (≈ 3.68 µg/mL)
- MBC ([3]; VRSA 11a, read-out: MBC): 16 µM (≈ 7.35 µg/mL)
- MIC ([3]; VRSA 11a, read-out: MIC): 8 µM (≈ 3.68 µg/mL)
- MBC ([3]; VRSA 11b, read-out: MBC): 32 µM (≈ 14.7 µg/mL)
- MIC ([3]; VRSA 11b, read-out: MIC): 8 µM (≈ 3.68 µg/mL)
- MBC ([3]; VRSA 12, read-out: MBC): 16 µM (≈ 7.35 µg/mL)
- MIC ([3]; VRSA 12, read-out: MIC): 8 µM (≈ 3.68 µg/mL)
- MBC ([3]; VRSA 13, read-out: MBC): 32 µM (≈ 14.7 µg/mL)
- MIC ([3]; VRSA 13, read-out: MIC): 8 µM (≈ 3.68 µg/mL)
